Source: patent US11179452B2, “Antigen specific multi epitope vaccines” (priority 2006, dated 2021)
No end group written: not given here.

Key:
Type in all cases: cell-based, human
PBL [1] = experiment: Proliferation of PBL, DC indirect presentation (peptide-pulsed autologous DC); settings: for IS (SI of the peptides as indicated in Table 7): one out of five experiments; for IS (SI of the peptides as indicated in Table 7) / Optimal dose via DC: six donors; for Optimal dose via DC: optimal dose required for PBL activation; for Optimal dose via DC / Peak of Proliferation (Hours) via DC: average of 5 experiments; for Peak of Proliferation (Hours) via DC: visual inspection by light microscopy daily during 5 days; for IS (as indicated in Table 12): two donors
Protocol: (§1) Human PBMC were separated from buffy coat samples of naive donors using Ficoll UNI-SEPmaxi tube. Separated cells were suspended in RPMI medium supplemented with 10% FCS, L-Glutamine, Sodium Pyruvate, MEM-EAGLE non-essential amino-acids, HEPES and Gentamycin Sulphate (Bet-Haemek Industries, IL) and cultivated for 4 h at 37° C. in a culture dish (Corning 150 mm×25 mm). Adherent cells were collected and cultured for 7 days in serum free DCCM-1 medium supplemented with L-Glutamine, huIL-4 (1000 IU/ml) (Cytolab IL) and GM-CSF-80 ug/ml (Cytolab IL). On day seven floating cells were collected and loaded with 50 ug/ml of examined peptide for 18 h at 37° C.
(§2) Proliferation analysis was conducted in three different methods. In all three methods, plates were cultured for 3-5 days under visual control and then 0.5 […]Cu/well of 3[H] (Amersham) was added for additional culture of to 18 h at 37° C. In the last step, plates were harvested and the radioactive counts were measured in a □ counter. • 1. DC indirect presentation: In the first method, 100 µl of 2×10^6 thawed PBL were placed in U-shape Bottom 96 well plate (Nunc) with RPMI medium supplemented with 5% H AB serum, L-Glutamine, Sodium Pyruvate, MEM-EAGLE non-essential amino-acids, HEPES and Gentamycin. At the next stage 100 µl of 25×10^4 peptide-pulsed DC were added to each three wells of PBL and underwent proliferation analysis as described above. • 2. PBL direct presentation: In the 2nd method, 100 µl of 2×10^6 PBL were placed in Flat Bottom 96 well plates (Corning) and stimulated with different concentrations (0.05 ug/ml-2 ug/ml) of peptides. In the next step the cells underwent proliferation analysis as described above. • 3. PBMC direct presentation: In third method PNMC were used under similar conditions as described for the second method.
In the first set of experiments, the 21mer ImMucin, its different 9mer epitopes and other control epitopes (Table 3) were evaluated in proliferation assays with the aim of finding their optimal mode of presentation, stimulated dose as well as their peak of activity (time wise).
To evaluate the most efficient method for priming of PBLs with the different peptides, the following methods were compared:
a. In-direct presentation of the peptide via Autologues-pulsed DC
(§3) Five experiments were performed according to the protocol described in material and methods with buffy-coat enriched PBLs obtained from six different naive donors (obtained from the Israeli blood bank).

PBL [2] = experiment: Proliferation of PBL, direct presentation of peptide without APC; settings: for Optimal dose Direct no APC: optimal dose required for PBL activation, six donors; for Optimal dose Direct no APC / Peak of Proliferation (Hours) Direct no APC: average of 5 experiments; for Peak of Proliferation (Hours) Direct no APC: visual inspection daily during 5 days
Protocol: In all three methods, plates were cultured for 3-5 days under visual control and then 0.5 □Cu/well of 3[H] (Amersham) was added for additional culture of to 18 h at 37° C. […] DC indirect presentation: In the first method, 100 µl of 2×10^6 thawed PBL were placed in U-shape Bottom 96 well plate (Nunc) with RPMI medium supplemented with 5% H AB serum, L-Glutamine, Sodium Pyruvate, MEM-EAGLE non-essential amino-acids, HEPES and Gentamycin. At the next stage 100 µl of 25×10^4 peptide-pulsed DC were added to each three wells of PBL and underwent proliferation analysis as described above. • 2. PBL direct presentation: In the 2nd method, 100 µl of 2×10^6 PBL were placed in Flat Bottom 96 well plates (Corning) and stimulated with different concentrations (0.05 ug/ml-2 ug/ml) of peptides. In the next step the cells underwent proliferation analysis as described above. • 3. PBMC direct presentation: In third method PNMC were used under similar conditions as described for the second method.
Direct presentation of peptides to PBL without any APC

PBMC = experiment: Proliferation, direct presentation of peptide via PBMC (monocytes); settings: for PBL Index of stimulation (SI) via PBMC: naive donors, representative of 5 experiments; for Peak of Proliferation (Hours) via PBMC: visual inspection daily during 5 days
Protocol: as §2
b. Direct presentation of the peptides via PBMC i.e. monocytes
as §3

PBL [3] = experiment: ELISA of cytokine secretion by PBL stimulated once with peptide-pulsed DC
Protocol: as §1
(§4) Cytokine release was studied during the culture of stimulated T-cells. The evaluated samples were collected from the T cell culture medium on day 2, 3, and 5 and stored until use at −20° C.
(§5) […] of the selected capture antibody (e.g. anti-Hu IFN-Gamma, or anti-Hu TNF-alfa or anti IL-2) were added to each well at the final concentration of 5 μg/ml in PBS. Plates were incubated for 2 h at R.T. or over night at 4° C. Next, […] of blocking solution were added for an incubation of 2 h at R.T. […] of evaluated samples were added in duplicate into 2 wells for 2 hours at RT. After 2 h of incubation at R.T plates were washed λ4 times in washing solution. In the next step, a Biotin-conjugated detection antibody (relevant to coated antibody) was added at a final concentration of 10 μg/ml in total volume of 100 μl for 1 h at R.T. Finally, 100 μl/well working dilution (1:10000 in Blocker solution) of Streptavidin-HRP were added to each well and incubated for 1 h at R.T.
(§6) Plates were washed λ6 times with PBS-Tween (0.4%) and 100 μl/well of TMB/E Solution (CHEMICON, Catalog #ES001) was added. The plates were then exposed until blue color appeared in the wells of the positive control and no color was detected in the blank wells. To stop the color reaction, 50 μl/well of 10% of Sulfuric acid was added. The plates were counted in ELISA-Reader using a 450 nm filter.

[4] = test system: ImMucin specific T-cell subpopulation; experiment: Proliferation of the ImMucin-specific T-cell subpopulation after three stimulations; settings: one out of two experiments, four donors
Text: (§7) Thawed PBLs underwent 1st stimulation with ImMucin pulsed Autologues DC at a ratio of 20:1 and cultured for 7 days in dedicated T cell Medium. T cell medium contained RPMI medium supplemented with 10% FCS, L-Glutamine, Sodium Pyruvate, MEM-EAGLE non-essential amino-acids, HEPES and Gentamycin Sulphate (Bet-Haemek Industries, IL) as well as with 50 IU/ml of recombinant IL-7 (Cytolab IL). For the second stimulation, PBL were transferred to adherent autologues ImMucin-pulsed PBMC and cultured for additional 5 days in T cell Medium. At the end of the 5 days, medium was partial replaced with fresh medium containing 1 ug/ml of ImMucin and 50 IU/ml IL-2 for a third stimulation of 48 h at 37° C. Following the last stimulation ImMucin T cell line was checked for immune activation properties.
as §2
(§8) For that purpose, an enriched ImMucin-specific T cell subpopulation was produced via repeated stimulation with ImMucin. The specificity of the subpopulation for ImMucin, as well as to the other VXL epitopes, was examined using proliferation assays, cytokine release assays, FACS analysis in which the percentage and type of cells enriched during the enrichment process was analyzed, and using a CTL assay against selected target cells.
(§9) For producing the specific T cell subpopulation PBL were stimulated three times for 7, 5 and 2 days with ImMucin presented via DC and PBMC. Following the 3rd stimulation the cells were evaluated against the different VXL epitopes.

[5] = test system: T-Cell specific subpopulation (Clones); experiment: ELISA of cytokine secretion by the T-cell specific subpopulation (clones) stimulated with peptides; settings: two experiments, four donors
Text: as §7, §4, §5, §6, §8, §9

[6] = naive donors, CPM sample / CPM control, representative of 5 experiments
[7] = naive donors, representative of 5 experiments
[8] = peptide DC ratio 16:1, one out of five experiments, six donors
[9] = average of two healthy donors (Table 11)
[10] = peptide pulsed DC ratio 16:1, one out of two experiments, two donors (Table 12)

Compound | PBL Index of stimulation (SI) via DC (PBL [1]; [6]) | IS (SI of the peptides as indicated in Table 7) (PBL [1]) | Optimal dose via DC (PBL [1]) | Peak of Proliferation (Hours) via DC (PBL [1]) | PBL Index of stimulation (SI) Direct no APC (PBL [2]; [7]) | Optimal dose Direct no APC (PBL [2]) | Peak of Proliferation (Hours) Direct no APC (PBL [2]) | PBL Index of stimulation (SI) via PBMC (PBMC) | Peak of Proliferation (Hours) via PBMC (PBMC; average of 5 experiments) | IFN-gamma (PBL [3]; [8]) [ng/mL] | TNF-Alfa (PBL [3]; [8]) [ng/mL] | IS (Average) [4] | IS (Range) [4] | IL-2 % of clones [5] [%] | IL-2 Range [5] [ng/mL] | INF-gamma % of clones [5] [%] | INF-gamma Range [5] [ng/mL] | TNF-Alfa % of clones [5] [%] | TNF-Alfa Range [5] [ng/mL] | PBL Index of stimulation (SI) Direct no APC (PBL [2]; [9]) | other results
SPFFLLLLL [VXL-5, SPFFLLLLL] | 3.73 | 3.74 | 12.5-25 × × 10e6/well | 48-72 h^ | 0 | No Influence | No proliferation | 1.8 | 48-72 h^ | 0 | 14.8 | 3.575 | 2.75-4.4 | 0 | 0 | 33 | 2.75 to 5.5 | 50 | 3.84 to 9.2 | – | TNF-Alfa (PBL [3]; peptide DC ratio 16:1, one out of five experiments, six donors, listed as VXL5): highest cytokine release
MAARAVFLAL SAQLLQA (MAARAVFLALSAQLLQA; listed as Homo sapiens) [VXL-102, signal peptide vaccine derived from melanoma associated TAA BAGE] | – | – | – | – | – | – | – | – | – | – | – | – | – | – | – | – | – | – | – | 0 | IS (as indicated in Table 12) (PBL [1]): 1.9; TNF-Alfa (PBL [3]; [10]): 15.5 ng/mL
CSCC[C@H](N)C(=O)N[C@@H](CC(C)C)C(=O)N[C@@H](CC(C)C)C(=O)N[C@@H](C)C(=O)N[C@H](C(=O)N[C@@H](CC(C)C)C(=O)N[C@@H](Cc1ccc(O)cc1)C(=O)N[C@@H](CS)C(=O)N[C@@H](CC(C)C)C(=O)O)C(C)C [VXL-11, MLLAVLYCL, reference compound] | 1.65 | 1.65 | 12.5-25 × × 10e6/well | 96 h | 0 | No Influence | No proliferation | 1.25 | 96 h | 0 | – | 1.14 | 1-1.28 | 0 | 0 | 33 | 2.2 to 4.7 | 0 | 0 | – | Optimal dose via PBMC (PBMC; optimal dose required for PBL activation, average of 5 experiments, six donors): 0.05 to 1 µg/mL; IL-2 (PBL [3]; [8]): 0 ng/mL
TQSPFFLLL [VXL-4, TQSPFFLLL] | 3.74 | 3.4 | 12.5-25 × × 10e6/well | 72-96 h^ | 0 | No Influence | No proliferation | 1.45 | 72-96 h^ | 0 | 17.1 | 2.665 | 2.4-2.93 | 33 | 3.8 to 8.7 | 33 | 2.6 to 8.4 | 58 | 3.1 to 9.8 | – | IL-2 (PBL [3]; [8]): 0 ng/mL; TNF-Alfa (PBL [3]; peptide DC ratio 16:1, one out of five experiments, six donors, listed as VXL4): highest cytokine release; IL-2 Range ng/ml ([5]; listed as VXL4): high; INF-gamma Range ng/ml ([5]; listed as VXL4): high
MWATQGLAVALALSVLPGSRA (MWATQGLAVALALSVLPGSRA; listed as Homo sapiens) [VXL-101, signal peptide vaccine derived from ARMET] | – | – | – | – | – | – | – | – | – | – | – | – | – | – | – | – | – | – | – | 0 | PBL Index of stimulation (SI) via DC (PBL [1]; [9]): 2.8; PBL Index of stimulation (SI) via DC (PBL [1]; average of two healthy donors (Table 11), listed as Armet): highest SI; IS (as indicated in Table 12) (PBL [1]): 2.8; IL-2 (PBL [3]; [10]): 0 ng/mL; TNF-Alfa (PBL [3]; [10]): 10.5 ng/mL
PADREAGVAA WTLKAAA (PADREAGVAAWTLKAAA) [VXL-14, reference compound] | – | – | – | – | – | – | – | – | – | – | – | – | – | – | – | – | – | – | – | 0 | PBL Index of stimulation (SI) via DC (PBL [1]; [9]): 2.94
